Experimental data published in patent US20260053811A1, “METHODS OF TREATING HYPERTENSION IN OBESE SUBJECTS” (Mineralys Therapeutics, Inc., priority 2022, published 2026).

System: hypertensive subjects
Assay: 24-hour ambulatory blood pressure monitoring (ABPM), incl. nighttime dip
Type: in vivo, human
Details: Part 1; for LSM Δ with Placebo, 24-hr DBP (ABPM, ANCOVA) / LSM Δ with Placebo, 24-hr Mean MAP (ABPM, ANCOVA) / LSM Δ with Placebo, 24-hr SBP (ABPM, ANCOVA) / LSM Δ with Placebo, Daytime Mean DBP (ABPM, ANCOVA) / LSM Δ with Placebo, Daytime Mean SBP (ABPM, ANCOVA) / LSM Δ with Placebo, Mean Central DBP (ABPM, ANCOVA) / LSM Δ with Placebo, Mean Central Mean BP (ABPM, ANCOVA) / LSM Δ with Placebo, Mean Central SBP (ABPM, ANCOVA) / LSM Δ with Placebo, Nighttime Mean DBP (ABPM, ANCOVA) / LSM Δ with Placebo, Nighttime Mean SBP (ABPM, ANCOVA): End of Treatment, FAS post-hoc
Procedure: Ambulatory blood pressure monitoring was accomplished with an ambulatory blood pressure monitoring device that consists of a blood pressure cuff worn on a subject's arm attached to a small recording device that is typically attached to the subject's belt or waistband.
The ABPM device is worn for 24 hours. Throughout that period, the device records the subject's blood pressure at regular intervals, during the subject's routine daily activities and while they are sleeping. The ABPM thus provides a complete record of the subject's blood pressure over a 24-hour period.
24-hour ABPM was measured in the clinic at baseline and Study Week 7. If, for any reason, the ABPM procedure was deemed a failure at the end of Study Week 7, it may have been repeated at Study Week 8 and therefore no imputation was employed regardless of use of rescue medications. Additionally, ABPM was also collected at the end of Study Week 4 in Part 2. If a repeat test was performed, it supersedes the original test results for that visit.
Specific derived variables based on ABPM measurements include mean 24-hour, mean Daytime, and mean Nighttime of SBP, DBP, and heart rate.
Change from baseline to Week 7 in 24-hour mean SBP (and DBP) based on ABPM will be analyzed using an ANCOVA with a term for treatment group and a baseline mean 24-hour value as a covariate.
The nighttime dip is defined as
100%×(mean daytime SBP−mean nighttime SBP)/mean daytime SBP
It is expressed as a percentage and is summarized by treatment group and visit using descriptive statistics. In addition, the number and percentage of subjects with nighttime dip in each of the dipper categories (Bloomfield & Park, 2015) is presented by treatment group and visit. The categories are: • (a) <10% • (b) 10-20% inclusive • (c) >20%
Secondary endpoints of this study were: • (a) Change in 24-hour ambulatory blood pressure monitoring (ABPM) parameters (systolic and diastolic) from baseline to the end of Study Week 7. • (b) Change in office-measured SBP from baseline to the end of Study Weeks 1, 2, 3, 4, 5, 6, and 7. • (c) Change in office-measured diastolic blood pressure (DBP) from baseline to the end of Study Weeks 1, 2, 3, 4, 5, 6, 7, and 8. • (d) Proportion of subjects who achieve office-measured BP of ≤130/80 mm Hg by the end of Study Week 8.

CC(=O)N[C@H]1CC[C@H](NC(=O)CN2CCN(c3nncc(-c4ccc(C)cc4)n3)CC2)CC1 [Compound A HBr]
LSM Δ with Placebo, 24-hr DBP (ABPM, ANCOVA) (12.5 mg BID): −4.24 mmHg | LSM Δ with Placebo, 24-hr Mean MAP (ABPM, ANCOVA) (12.5 mg BID): −4.58 mmHg | LSM Δ with Placebo, 24-hr SBP (ABPM, ANCOVA) (12.5 mg BID): −4.76 mmHg | LSM Δ with Placebo, Daytime Mean DBP (ABPM, ANCOVA) (12.5 mg BID): −4.19 mmHg | LSM Δ with Placebo, Daytime Mean SBP (ABPM, ANCOVA) (12.5 mg BID): −4.96 mmHg | LSM Δ with Placebo, Mean Central DBP (ABPM, ANCOVA) (12.5 mg BID): −4.85 mmHg | LSM Δ with Placebo, Mean Central Mean BP (ABPM, ANCOVA) (12.5 mg BID): −6.08 mmHg | LSM Δ with Placebo, Mean Central SBP (ABPM, ANCOVA) (12.5 mg BID): −7.19 mmHg | LSM Δ with Placebo, Nighttime Mean DBP (ABPM, ANCOVA) (12.5 mg BID): −3.92 mmHg | LSM Δ with Placebo, Nighttime Mean SBP (ABPM, ANCOVA) (12.5 mg BID): −3.9 mmHg | 24-hr Mean DBP (ABPM), Mean (SD) (12.5 mg BID, EoT, FAS): 77.63 (11.03) mmHg | 24-hr Mean MAP (ABPM), Mean (SD) (12.5 mg BID, EoT, FAS): 105.41 (12.62) mmHg | 24-hr Mean SBP (ABPM), Mean (SD) (12.5 mg BID, EoT, FAS): 133.19 (14.86) mmHg | Daytime Mean DBP (ABPM), Mean (SD) (12.5 mg BID, EoT, FAS): 79.69 (10.81) mmHg | Daytime Mean SBP (ABPM), Mean (SD) (12.5 mg BID, EoT, FAS): 135.38 (14.97) mmHg | Nighttime Mean DBP (ABPM), Mean (SD) (12.5 mg BID, EoT, FAS): 72.44 (12.25) mmHg | Nighttime Mean SBP (ABPM), Mean (SD) (12.5 mg BID, EoT, FAS): 126.81 (16.69) mmHg | Subjects with nighttime dip 10-20% in 24-hour systolic ABPM (12.5 mg BID, EoT, FAS): 5 (31.3) n (%) | Subjects with nighttime dip <10% in 24-hour systolic ABPM (12.5 mg BID, EoT, FAS): 11 (68.8) n (%) | Subjects with nighttime dip >20% in 24-hour systolic ABPM (12.5 mg BID, EoT, FAS): 0 n (%) | 24-hr Mean DBP (ABPM) CFB to EoT, Mean (SD) (12.5 mg BID, FAS): −5.38 (8.59) mmHg | 24-hr Mean MAP (ABPM) CFB to EoT, Mean (SD) (12.5 mg BID, FAS): −5.53 (10.63) mmHg | 24-hr Mean SBP (ABPM) CFB to EoT, Mean (SD) (12.5 mg BID, FAS): −5.69 (12.90) mmHg | Daytime Mean DBP (ABPM) CFB to EoT, Mean (SD) (12.5 mg BID, FAS): −4.25 (9.64) mmHg | Daytime Mean SBP (ABPM) CFB to EoT, Mean (SD) (12.5 mg BID, FAS): −4.06 (14.48) mmHg | Nighttime Mean DBP (ABPM) CFB to EoT, Mean (SD) (12.5 mg BID, FAS): −6.00 (10.17) mmHg | Nighttime Mean SBP (ABPM) CFB to EoT, Mean (SD) (12.5 mg BID, FAS): −7.50 (16.17) mmHg | LSM Δ with Placebo, 24-hr DBP (ABPM, ANCOVA) (12.5 mg QD): −1.44 mmHg | LSM Δ with Placebo, 24-hr Mean MAP (ABPM, ANCOVA) (12.5 mg QD): −1.62 mmHg | LSM Δ with Placebo, 24-hr SBP (ABPM, ANCOVA) (12.5 mg QD): −1.5 mmHg | LSM Δ with Placebo, Daytime Mean DBP (ABPM, ANCOVA) (12.5 mg QD): −2.47 mmHg | LSM Δ with Placebo, Daytime Mean SBP (ABPM, ANCOVA) (12.5 mg QD): −2.14 mmHg | LSM Δ with Placebo, Mean Central DBP (ABPM, ANCOVA) (12.5 mg QD): −1.29 mmHg | LSM Δ with Placebo, Mean Central Mean BP (ABPM, ANCOVA) (12.5 mg QD): 0.06 mmHg | LSM Δ with Placebo, Mean Central SBP (ABPM, ANCOVA) (12.5 mg QD): 1.92 mmHg | LSM Δ with Placebo, Nighttime Mean DBP (ABPM, ANCOVA) (12.5 mg QD): −1.53 mmHg | LSM Δ with Placebo, Nighttime Mean SBP (ABPM, ANCOVA) (12.5 mg QD): −0.21 mmHg | 24-hr Mean DBP (ABPM), Mean (SD) (12.5 mg QD, EoT, FAS): 79.93 (7.33) mmHg | 24-hr Mean MAP (ABPM), Mean (SD) (12.5 mg QD, EoT, FAS): 109.47 (10.81) mmHg | 24-hr Mean SBP (ABPM), Mean (SD) (12.5 mg QD, EoT, FAS): 139.00 (16.31) mmHg | Daytime Mean DBP (ABPM), Mean (SD) (12.5 mg QD, EoT, FAS): 81.53 (6.79) mmHg
